This note sets out measurements from EP0386667B1, “6-Amino-6-desoxyfumagillols, production and use thereof” (Takeda Chemical Industries, Ltd., priority 1989, dated 1990).

≈ marks a conversion by molar mass, not a printed value.

Test [1] relates to bFGF-induced angiogenesis. The test can be described thus: angiogenesis inhibitory activity by the rat cornea micropocket method. The test is classed as in vivo, Sprague-Dawley rats. Conditions: number of rats on which angiogenesis inhibitory activity was observed relative to the number of rats tested, sample pellet 20 µg beside bFGF (250 ng) pellet in cornea, observed after 10 days; for responders at 20 µg/pellet: Rattus norvegicus, 240 h, read-out: Inhibitory Rate (converted). As to the method: The object compounds (I) obtained in the Working Examples given below were evaluated for angiogenesis inhibitory activity by the rat cornea micropocket method.
Essentially the same method of Gimbrone et al. [J. National Cancer Institute, 52, 413-419 (1974)] was followed. Thus, adult male Sprague-Dawley rats 11 to 16 week old) were anesthetized with nembutal and locally anesthetized by instillation of xylocaine eyedrops onto the eyeball. The cornea was incised to a length of about 2 mm at about 2 mm inside from the corneal circumference by means of an injection needle, and a sustained release pellet containing basic fibroblast growth growth factor (bFGF; bovine brain-derived, purified product; R & D Inc.) and a sustained release pellet containing the test sample were inserted side by side into the incision so that the bFGF pellet was located on the central side in the cornea. In the control group, the bFGF pellet and a sample-free pellet were inserted into the cornea. After 10 days, the cornea was observed under a stereoscopic microscope.
The sustained release pellets were prepared in the following manner. An ethylene-vinyl acetate copolymer (Takeda Chemical Industries, Ltd.) was dissolved in dichloromethane to a concentration of 8%. A 3 µl portion of the solution was air-dried on a glass dish, an aqueous solution of bFGF (250 ng) was then placed thereon and air-dried and, finally 3 µl of the above ethylene-vinyl acetate copolymer solution was placed further thereon and air-dried to give a sandwich sheet. This sandwich sheet was made round into a bFGF pellet. The test sample pellets were prepared by dissolving each sample in ethanol in a concentration of 20 µg/2 µl, mixing the solution with 6 µl of an ethylene-vinyl acetate copolymer solution, air-drying the mixed solution in a glass dish and making the thus-obtained sheet round.
Incidentally, in the Table 1 below, the inhibitory rate means the number of rats on which angiogenesis inhibitory activity was observed relative to the number of rats tested.

Test [2] has as its system Human umbilical vein endothelial cells. The test can be described thus: inhibition of human umbilical vein endothelial cell growth (MTT). The test is classed as cell-based. The conditions noted are these: rFGF 2 ng/ml, 5-day culture, concentration giving 50% OD value of control; for IC50: Homo sapiens, Endothelial cell, 120 h, read-out: IC₅₀. As to the method: Human umbilical vein endothelial cells were isolated by perfusion of an umbilical vein with a trypsin-containing medium. The cells were cultured in sequence in GIT medium (Nihon Pharm. In.) supplemented with 2.5% fetal bovine serum and 2.0 ng/ml or recombinant human fibroblast growth factor (hereinafter simply referred to rFGF, prepared at Biotechnology Research Laboratories, Takeda Chemical Industries, Ltd.).
A suspension of human vein endothelial cells at the cell density of 2 x 10³ (100 µl) was seeded on 96-well incubation plate (Nunc, 1-67008), and incubation was conducted in a gas-controlled thermostat vessel. […] After 5-day culture, the medium was removed by suction, 100 µl of 1 mg/ml of MTT solution [3-(4,5-dimethyl-2-thiazolyl)-2,5-diphenyl-2H-tetrazolium bromide was dissolved in the medium] was added and kept warming for 4 hours. Then, 100 µl of a 10% SDS solution (aqueous solution of sodium dodecyl sulfate) was added, and the mixture was kept warming for 5-6 hours. The cells and MTT pigment were solubilized, and the optical density ([…]) was measured using a spectrophotometer. The OD value of the control group to which no test sample was added was set as 100%, and the activity of each test sample for inhibiting endothelial cell growth was shown in Table 2 by the concentration of the test compound giving 50% OD value, i.e. IC₅₀ value.

As to “6β-(N′-chloroacetylureido)-4′,5′-dihydro-6-desoxyfumagillol [Example 14]”, in test [1], the “Inhibitory Rate” value is recorded as 5/5. In test [2], the IC₅₀ was 0.14 ng/mL.
On to `CO[C@@H]1[C@H](N)CC[C@]2(CO2)[C@H]1[C@@]1(C)O[C@@H]1CC=C(C)C` [Example 1, 6α-Amino-desoxyfumagillol], for which, in test [2], the IC50 is 7.92 ng/mL (≈ 28.1 nM).
Take `CO[C@@H]1[C@H](Nc2ccccc2)CC[C@]2(CO2)[C@H]1[C@@]1(C)O[C@@H]1CC=C(C)C` [Example 2, 6α-Phenylamino-6-desoxyfumagillol]: the responders at 20 µg/pellet in test [1] was 62.5%.
`CO[C@@H]1[C@H](N(C)C(C)=O)CC[C@]2(CO2)[C@H]1[C@@]1(C)O[C@@H]1CC=C(C)C` [Example 3, 6α-(Acetyl)methylamino-6-desoxyfumagillol]: the responders at 20 µg/pellet in test [1] is 50%. In test [2], the IC50 is 3.21 ng/mL (≈ 9.51 nM).
For `CO[C@@H]1[C@H](NC(C)=O)CC[C@]2(CO2)[C@H]1[C@@]1(C)O[C@@H]1CC=C(C)C` [Example 5, 6α-Acetylamino-6-desoxyfumagillol], the responders at 20 µg/pellet in test [1] was 57.1%. Further, the IC50 in test [2] came to 0.06 ng/mL (≈ 0.186 nM).
For `CO[C@@H]1[C@H](NS(=O)(=O)c2ccc(C)cc2)CC[C@]2(CO2)[C@H]1[C@@]1(C)O[C@@H]1CC=C(C)C` [Example 6, 6α-(p-Toluenesulfonylamino)-6-desoxyfumagillol], the responders at 20 µg/pellet in test [1] was 75%. For the same compound, the IC50 in test [2] worked out at 7.04 ng/mL (≈ 16.2 nM).
Turning to `CO[C@@H]1[C@H](NC(=O)OCC(C)C)CC[C@]2(CO2)[C@H]1[C@@]1(C)O[C@@H]1CC=C(C)C` [Example 7, 6α-(Isobutyloxy-carbonylamino)-6-desoxyfumagillol], the responders at 20 µg/pellet in test [1] was 100%. Besides, in test [2], the IC50 is 0.17 ng/mL (≈ 0.446 nM).
As to `CO[C@@H]1[C@H](NC(=O)c2ccccc2)CC[C@]2(CO2)[C@H]1[C@@]1(C)O[C@@H]1CC=C(C)C` [Example 8, 6α-Benzoylamino-6-desoxyfumagillol], the responders at 20 µg/pellet in test [1] is 85.7%. Also, in test [2], the IC50 stood at 0.2 ng/mL (≈ 0.519 nM).
For the compound `CO[C@@H]1[C@H](NC(=O)NC(=O)CCl)CC[C@]2(CO2)[C@H]1[C@@]1(C)O[C@@H]1CC=C(C)C` [Example 9, 6α-(N′-chloroacetylureido)-6-desoxyfumagillol], the responders at 20 µg/pellet in test [1] was 100%. The IC50 in test [2] was determined as 0.057 ng/mL (≈ 0.142 nM).
As for `CO[C@@H]1[C@H](NC(=S)Nc2cccc3ccccc23)CC[C@]2(CO2)[C@H]1[C@@]1(C)O[C@@H]1CC=C(C)C` [Example 10, 6α-[N′-(1-naphthyl)thioureido]-6-desoxyfumagillol], the responders at 20 µg/pellet in test [1] is 40%. In addition, the IC50 in test [2] turned out to be 8.13 ng/mL (≈ 17.4 nM).
Regarding `CO[C@@H]1[C@H](NC(=O)Nc2cccc3ccccc23)CC[C@]2(CO2)[C@H]1[C@@]1(C)O[C@@H]1CC=C(C)C` [Example 11, 6α-[N′-(1-naphthyl)ureido]-6-desoxyfumagillol], the responders at 20 µg/pellet in test [1] is 100%. For the same compound, the IC50 in test [2] is 0.34 ng/mL (≈ 0.755 nM).
With `CO[C@@H]1[C@H](NC(=O)NCCCl)CC[C@]2(CO2)[C@H]1[C@@]1(C)O[C@@H]1CC=C(C)C` [Example 12, 6α-[N′-(2-chloroethyl)ureido]-6-desoxyfumagillol], in test [2], the IC50 came out at 1.16 ng/mL (≈ 3 nM).
For the compound `CO[C@@H]1[C@H](NC(N)=O)CC[C@]2(CO2)[C@H]1[C@@]1(C)O[C@@H]1CC=C(C)C` [Example 13, 6α-Ureido-6-desoxyfumagillol], the responders at 20 µg/pellet in test [1] is 100%. The IC50 in test [2] was 0.1 ng/mL (≈ 0.308 nM).
In the same order, the values of `CO[C@@H]1[C@@H](N)CC[C@]2(CO2)[C@H]1[C@@]1(C)O[C@@H]1CC=C(C)C` [Example 16, 6β-Amino-6-desoxyfumagillol] are 50% and 9.49 ng/mL (≈ 33.7 nM).
In the case of `CO[C@@H]1[C@@H](N2CCCC2)CC[C@]2(CO2)[C@H]1[C@@]1(C)O[C@@H]1CC=C(C)C` [Example 19, 6β-Pyrrolidino-6-desoxyfumagillol], the responders at 20 µg/pellet in test [1] was 66.7%.
Regarding `CO[C@H]1[C@H]([C@@]2(C)O[C@@H]2CC=C(C)C)[C@]2(CC[C@@H]1[N+]1(C)CCCC1)CO2` [Example 20, 6β-Pyrrolidino-6-desoxyfumagillol methyl iodide], the responders at 20 µg/pellet in test [1] was 42.9%.
